Results: patent publication US20250136606A1, “MODULATORS OF TRPML, THEIR COMPOSITIONS AND METHODS OF USE” (Caraway Therapeutics, Inc., priority 2021, published 2025)

Assays:
Assay type in all cases: cell-based
[1] = target: T1, TRPML3 (Homo sapiens, UniProt Q8TDD5); assay: Fluorescent TRPML3 assay (performed as for TRPML1, substituting the TRPML3 subtype)
T1 construct: expressed in transfected cells
T1 sequence (Q8TDD5 1-553): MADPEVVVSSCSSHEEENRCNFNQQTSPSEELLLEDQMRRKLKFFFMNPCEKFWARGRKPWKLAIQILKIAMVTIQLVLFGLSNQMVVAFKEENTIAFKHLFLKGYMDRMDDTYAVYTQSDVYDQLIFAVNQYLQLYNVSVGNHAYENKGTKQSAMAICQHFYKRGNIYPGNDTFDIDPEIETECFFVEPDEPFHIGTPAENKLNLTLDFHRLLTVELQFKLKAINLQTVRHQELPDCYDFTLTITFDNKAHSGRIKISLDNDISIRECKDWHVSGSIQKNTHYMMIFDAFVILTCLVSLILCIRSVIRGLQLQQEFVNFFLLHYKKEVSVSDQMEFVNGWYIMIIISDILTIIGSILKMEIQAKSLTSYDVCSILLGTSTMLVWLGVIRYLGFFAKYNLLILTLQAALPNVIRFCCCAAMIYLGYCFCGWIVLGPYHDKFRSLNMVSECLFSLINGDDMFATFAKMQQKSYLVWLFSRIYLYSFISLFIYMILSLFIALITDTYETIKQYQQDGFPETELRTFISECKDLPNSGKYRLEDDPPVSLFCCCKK
Method in brief: (§1)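 Compound series (final 6 nM-20 μM, half-log, triplicate) were added to Fluo4-AM-loaded HEK-293 Trex cells in 10 mM calcium Ringer's, expressing the human TRPML subtype after doxycycline 0.5 ug/mL induction. Percent activity versus positive/negative controls from 480/540 nm fluorescence; EC50 by non-linear regression.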

[2] = target: TRPML1 (Homo sapiens, UniProt Q9GZU1); assay: Fluorescent TRPML1 assay (Fluo4-AM calcium fluorescence in doxycycline-induced HEK-293 Trex cells)
Sequence of TRPML1 (Q9GZU1 whole entry L15A/L16A/L577A/L578A, form open): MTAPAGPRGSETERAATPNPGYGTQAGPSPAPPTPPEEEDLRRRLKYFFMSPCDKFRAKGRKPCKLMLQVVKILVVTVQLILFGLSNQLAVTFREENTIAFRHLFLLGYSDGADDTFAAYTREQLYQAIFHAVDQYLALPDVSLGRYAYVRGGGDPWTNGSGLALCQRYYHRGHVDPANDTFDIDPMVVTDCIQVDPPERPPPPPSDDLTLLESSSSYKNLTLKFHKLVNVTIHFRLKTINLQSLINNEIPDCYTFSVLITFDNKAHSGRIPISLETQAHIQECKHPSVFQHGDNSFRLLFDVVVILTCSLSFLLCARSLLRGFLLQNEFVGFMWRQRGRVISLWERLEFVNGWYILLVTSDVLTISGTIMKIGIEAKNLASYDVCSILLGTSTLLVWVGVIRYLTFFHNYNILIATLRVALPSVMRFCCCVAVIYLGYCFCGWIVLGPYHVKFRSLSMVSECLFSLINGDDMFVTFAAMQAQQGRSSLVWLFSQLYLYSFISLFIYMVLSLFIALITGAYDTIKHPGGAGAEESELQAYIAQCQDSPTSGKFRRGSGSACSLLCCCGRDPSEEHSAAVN
Method in brief: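 hTRPML1 (mutated for cell-surface expression) in HEK-293 Trex, dox 0.5 ug/mL o/n; Fluo4-AM 1 uM ~60 min, then ~60 min de-esterification, dark; modified Ringer's + 10 mM Ca. Cmpds 20 uM–6 nM final, half-log, n=3. Ex480/Em540; % activity vs ctrls; EC50 by nonlinear regression.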

[3] = target: T2, TRPML2 (Homo sapiens, UniProt Q8IZK6); assay: Fluorescent TRPML2 assay (performed as for TRPML1, substituting the TRPML2 subtype)
T2 construct: expressed in transfected cells
T2 sequence (Q8IZK6 1-566): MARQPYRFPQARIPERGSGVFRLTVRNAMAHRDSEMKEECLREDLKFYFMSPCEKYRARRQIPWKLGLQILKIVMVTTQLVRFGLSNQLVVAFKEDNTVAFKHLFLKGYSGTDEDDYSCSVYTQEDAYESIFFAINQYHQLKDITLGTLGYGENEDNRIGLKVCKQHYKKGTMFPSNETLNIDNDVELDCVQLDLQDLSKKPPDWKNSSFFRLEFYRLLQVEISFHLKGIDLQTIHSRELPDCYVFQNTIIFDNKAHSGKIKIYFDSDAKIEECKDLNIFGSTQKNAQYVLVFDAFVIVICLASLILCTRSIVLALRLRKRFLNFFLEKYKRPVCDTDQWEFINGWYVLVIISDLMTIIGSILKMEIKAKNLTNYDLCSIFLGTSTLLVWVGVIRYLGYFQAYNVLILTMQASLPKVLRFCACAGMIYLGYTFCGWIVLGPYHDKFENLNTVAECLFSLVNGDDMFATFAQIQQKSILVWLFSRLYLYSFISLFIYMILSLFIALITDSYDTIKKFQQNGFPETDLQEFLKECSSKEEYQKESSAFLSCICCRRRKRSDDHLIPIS
Method in brief: as §1

Compound | EC50 [1] [nM] | EC50 [2] [nM] | EC50 [3] [nM]
CC(C)(C)OC(=O)N1CCN(c2ncnc3c2c(C(F)(F)F)cn3-c2cc(C#N)ccn2)C2(CC2)C1 [Compound 530, tert-butyl 4-(7-(4-cyanopyridin-2-yl)-5-(trifluoromethyl)-7H-pyrrolo[2,3-d]pyrimidin-4-yl)-4,7-diazaspiro[2.5]octane-7-carboxylate] | < 100 | < 100 | < 100
C[C@@H]1CN(c2ncnc3c2c(C(C)(C)C)cn3-c2nccc(C#N)n2)[C@@H](C)CN1C(=O)OC(C)(C)C [Compound 532, tert-butyl (2R,5S)-4-(5-(tert-butyl)-7-(4-cyanopyrimidin-2-yl)-7H-pyrrolo[2,3-d]pyrimidin-4-yl)-2,5-dimethylpiperazine-1-carboxylate] | 100 to 500 | < 100 | 500 to 2000
C[C@@H]1CN(c2ncnc3c2c(C(C)(C)C)cn3-c2cc(C#N)ncn2)[C@@H](C)CN1C(=O)OC(C)(C)C [Compound 533, tert-butyl (2R,5S)-4-(5-(tert-butyl)-7-(6-cyanopyrimidin-4-yl)-7H-pyrrolo[2,3-d]pyrimidin-4-yl)-2,5-dimethylpiperazine-1-carboxylate] | < 100 | < 100 | < 100
[2H]C([2H])([2H])C(OC(=O)N1C[C@H](C)N(c2ncnc3c2c(C(F)F)cn3-c2cc(C#N)ccn2)C[C@H]1C)(C([2H])([2H])[2H])C([2H])([2H])[2H] [Compound 538, 2-(methyl-d3)propan-2-yl-1,1,1,3,3,3-d6 (2R,5S)-4-(7-(4-cyanopyridin-2-yl)-5-(difluoromethyl)-7H-pyrrolo[2,3-d]pyrimidin-4-yl)-2,5-dimethylpiperazine-1-carboxylate] | < 100 | < 100 | 100 to 500
CC(C)(C)OC(=O)N1CCN(c2ncnc3c2c(N2CCCC2)cn3-c2cc(C#N)ccn2)C(C)(C)C1 [Compound 601, tert-butyl 4-(7-(4-cyanopyridin-2-yl)-5-(pyrrolidin-1-yl)-7H-pyrrolo[2,3-d]pyrimidin-4-yl)-3,3-dimethylpiperazine-1-carboxylate] | < 100 | < 100 | 100 to 500
C[C@@H]1CN(c2ncnc3c2c(C(F)F)cn3-c2cc(C#N)ccn2)[C@@H](C)CN1C(=O)OC1(C)CCC1 [Compound 605, 1-methylcyclobutyl (2R,5S)-4-(7-(4-cyanopyridin-2-yl)-5-(difluoromethyl)-7H-pyrrolo[2,3-d]pyrimidin-4-yl)-2,5-dimethylpiperazine-1-carboxylate] | < 100 | < 100 | 100 to 500
C[C@@H]1CN(c2ncnc3c2c(C(F)F)cn3-c2cccc(Cl)c2)[C@@H](C)CN1C(=O)OC1(C)CC1 [Compound 608, 1-methylcyclopropyl (2R,5S)-4-(7-(3-chlorophenyl)-5-(difluoromethyl)-7H-pyrrolo[2,3-d]pyrimidin-4-yl)-2,5-dimethylpiperazine-1-carboxylate] | < 100 | 100 to 500 | > 2000
CC(C)(C)OC(=O)N1CCN(c2ncnc3c2c(C(F)F)cn3-c2cc(C#N)ccn2)CC1 [Compound 609, tert-buty1 4-(7-(4-cyanopyridin-2-yl)-5-(difluoromethyl)-7H-pyrrolo[2,3-d]pyrimidin-4-yl)piperazine-1-carboxylate] | < 100 | < 100 | 500 to 2000
[2H]C([2H])([2H])[C@@H]1CN(c2ncnc3c2c(C(F)F)cn3-c2cc(C#N)ccn2)[C@@H](C)CN1C(=O)OC(C)(C)C [Compound 610, tert-butyl (2R,5S)-4-(7-(4-cyanopyridin-2-yl)-5-(difluoromethyl)-7H-pyrrolo[2,3-d]pyrimidin-4-yl)-5-methyl-2-(methyl-d3)piperazine-1-carboxylate] | < 100 | < 100 | 500 to 2000
C[C@H]1CN(C(=O)OC(C)(C)C)CCN1c1nccc2c1c(C1(C)CC1)cn2-c1cc(C#N)ccn1 [Compound 612, tert-butyl (S)-4-(1-(4-cyanopyridin-2-yl)-3-(1-methylcyclopropyl)-1H-pyrrolo[3,2-c]pyridin-4-yl)-3-methylpiperazine-1-carboxylate] | 100 to 500 | < 100 | 500 to 2000
C[C@@H]1CN(c2ncnc3c2c(C(F)F)cn3-c2cc(C#N)ccn2)[C@@H](C)CN1C(=O)OC1(C(F)(F)F)CCC1 [Compound 614, 1-(trifluoromethyl)cyclobutyl (2R,5S)-4-(7-(4-cyanopyridin-2-yl)-5-(difluoromethyl)-7H-pyrrolo[2,3-d]pyrimidin-4-yl)-2,5-dimethylpiperazine-1-carboxylate] | < 100 | < 100 | 100 to 500

Other lines, results leading:

EC50 [1] [nM] | EC50 [2] [nM] | EC50 [3] [nM] | Compound
< 100 | < 100 | < 100 | C[C@@H]1CN(c2ncnc3c2c(C(F)(F)F)cn3-c2cc(C#N)ccn2)[C@@H](C)CN1C(=O)OC1(C)CCC1 [Compound 535, 1-methylcyclobutyl (2R,5S)-4-(7-(4-cyanopyridin-2-yl)-5-(trifluoromethyl)-7H-pyrrolo[2,3-d]pyrimidin-4-yl)-2,5-dimethylpiperazine-1-carboxylate]
< 100 | < 100 | < 100 | C[C@@H]1CN(c2ncnc3c2c(C(F)(F)F)cn3-c2cc(C(F)(F)F)ccn2)[C@@H](C)CN1C(=O)OC(C)(C)C [Compound 536, tert-butyl (2R,5S)-2,5-dimethyl-4-(5-(trifluoromethyl)-7-(4-(trifluoromethyl)pyridin-2-yl)-7H-pyrrolo[2,3-d]pyrimidin-4-yl)piperazine-1-carboxylate]
< 100 | < 100 | < 100 | Cc1cn(-c2cc(C(F)(F)F)ccn2)c2ncnc(N3C[C@@H](C)N(C(=O)OC(C)(C)C)C[C@@H]3C)c12 [Compound 537, tert-butyl (2R,5S)-2,5-dimethyl-4-(5-methyl-7-(4-(trifluoromethyl)pyridin-2-yl)-7H-pyrrolo[2,3-d]pyrimidin-4-yl)piperazine-1-carboxylate]
100 to 500 | < 100 | 500 to 2000 | [2H]C([2H])([2H])C(OC(=O)N1C[C@@H](C)N(c2ncnc3c2c(C(F)(F)F)cn3-c2cc(C#N)ccn2)C[C@H]1C)(C([2H])([2H])[2H])C([2H])([2H])[2H] [Compound 602, 2-(methyl-d3)propan-2-yl-1,1,1,3,3,3-d6 (2R,5R)-4-(7-(4-cyanopyridin-2-yl)-5-(trifluoromethyl)-7H-pyrrolo[2,3-d]pyrimidin-4-yl)-2,5-dimethylpiperazine-1-carboxylate]
< 100 | < 100 | 500 to 2000 | [2H]C([2H])([2H])C(OC(=O)N1C[C@H](C)N(c2ncnc3c2c(C(F)(F)F)cn3-c2cc(C#N)ccn2)C[C@@H]1C)(C([2H])([2H])[2H])C([2H])([2H])[2H] [Compound 603, 2-(methyl-d3)propan-2-yl-1,1,1,3,3,3-d6 (2S,5S)-4-(7-(4-cyanopyridin-2-yl)-5-(trifluoromethyl)-7H-pyrrolo[2,3-d]pyrimidin-4-yl)-2,5-dimethylpiperazine-1-carboxylate]
< 100 | < 100 | 100 to 500 | C[C@@H]1CN(c2ncnc3c2c(C(F)(F)F)cn3-c2cc(C#N)ccn2)[C@@H](C)CN1C(=O)OC1(C(F)(F)F)CCC1 [Compound 604, 1-(trifluoromethyl)cyclobutyl (2R,5S)-4-(7-(4-cyanopyridin-2-yl)-5-(trifluoromethyl)-7H-pyrrolo[2,3-d]pyrimidin-4-yl)-2,5-dimethylpiperazine-1-carboxylate]
